From PubChem BioAssay AID248 (DTP/NCI, 2004)
Where “and” joins values, the source holds several entries; their conditions need not be identical. Equal values may be shown once. Toxic doses and inconclusive results are not listed. No stated cut-off is given here; in the data, active means T/C of 150% or more; inactive means T/C below 125%.

System: L1210 leukemia ip in BDF1 mice, survival T/C
Test: NCI In Vivo Anticancer Drug Screen. Data for tumor model L1210 Leukemia (intraperitoneal) in B6D2F1 (BDF1) mice
Settings: endpoint: mean survival time, higher = longer survival
Method in brief: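 Transplantable tumor model; survival measured in treated vs vehicle control mice. Value = treated/control.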

[1] = dose: 100.0 mg/kg/injection, schedule: Q01DX001 (ip), vehicle: Klucel (hydroxypropylcellulose) (HPC)
[2] = dose: 100.0 mg/kg/injection, schedule: Q04DX003 (ip), vehicle: Klucel (hydroxypropylcellulose) (HPC)
[3] = dose: 200.0 mg/kg/injection, schedule: Q01DX001 (ip), vehicle: Klucel (hydroxypropylcellulose) (HPC)
[4] = dose: 200.0 mg/kg/injection, schedule: Q04DX003 (ip), vehicle: Klucel (hydroxypropylcellulose) (HPC)
[5] = dose: 400.0 mg/kg/injection, schedule: Q01DX001 (ip), vehicle: Klucel (hydroxypropylcellulose) (HPC)
[6] = dose: 400.0 mg/kg/injection, schedule: Q04DX003 (ip), vehicle: Klucel (hydroxypropylcellulose) (HPC)
[7] = dose: 100.0 mg/kg/injection, schedule: Q01DX009 (ip), vehicle: saline with Tween-80
[8] = dose: 100.0 mg/kg/injection, schedule: Q04DX003 (ip), vehicle: saline
[9] = dose: 200.0 mg/kg/injection, schedule: Q01DX009 (ip), vehicle: saline with Tween-80
[10] = dose: 200.0 mg/kg/injection, schedule: Q04DX003 (ip), vehicle: saline
[11] = dose: 400.0 mg/kg/injection, schedule: Q04DX003 (ip), vehicle: saline
[12] = dose: 100.0 mg/kg/injection, schedule: Q01DX009 (ip), vehicle: Klucel (hydroxypropylcellulose) (HPC)
[13] = dose: 200.0 mg/kg/injection, schedule: Q01DX009 (ip), vehicle: Klucel (hydroxypropylcellulose) (HPC)
[14] = dose: 400.0 mg/kg/injection, schedule: Q01DX009 (ip), vehicle: Klucel (hydroxypropylcellulose) (HPC)
[15] = dose: 50.0 mg/kg/injection, schedule: Q01DX009 (ip), vehicle: saline
[16] = dose: 100.0 mg/kg/injection, schedule: Q01DX009 (ip), vehicle: saline
[17] = dose: 50.0 mg/kg/injection, schedule: Q01DX001 (ip), vehicle: saline
[18] = dose: 100.0 mg/kg/injection, schedule: Q01DX001 (ip), vehicle: saline
[19] = dose: 100.0 mg/kg/injection, schedule: Q04DX002 (ip), vehicle: Klucel (hydroxypropylcellulose) (HPC)
[20] = dose: 200.0 mg/kg/injection, schedule: Q04DX002 (ip), vehicle: Klucel (hydroxypropylcellulose) (HPC)
[21] = dose: 100.0 mg/kg/injection, schedule: Q04DX003 (ip), vehicle: saline with Tween-80
[22] = dose: 200.0 mg/kg/injection, schedule: Q04DX003 (ip), vehicle: saline with Tween-80
[23] = dose: 200.0 mg/kg/injection, schedule: Q01DX001 (ip), vehicle: saline
[24] = dose: 400.0 mg/kg/injection, schedule: Q04DX003 (ip), vehicle: saline with Tween-80
[25] = dose: 50.0 mg/kg/injection, schedule: Q01DX009 (ip), vehicle: saline with Tween-80

Measured: T/C

O=C(NCCCl)NC1CCC2CCCCC2C1 (stereo not drawn)
inactive: [1] 100 % of control | [2] 92 % of control | [3] 102 % of control | [4] 97 % of control | [5] 92 % of control | [6] 97 % of control

NC1=NC(=O)CS1
inactive: dose: 100.0 mg/kg/injection, schedule: Q01DX001 (ip), vehicle: saline with Tween-80 92 % of control | [7] 105 % of control | [8] 86 % of control | dose: 200.0 mg/kg/injection, schedule: Q01DX001 (ip), vehicle: saline with Tween-80 103 % of control | [9] 107 % of control | [10] 93 % of control | dose: 400.0 mg/kg/injection, schedule: Q01DX001 (ip), vehicle: saline with Tween-80 95 % of control | dose: 400.0 mg/kg/injection, schedule: Q01DX009 (ip), vehicle: saline with Tween-80 105 % of control | [11] 86 % of control

CCCCCCCCCC(=O)N/N=C/c1c[nH]c2ccccc12
inactive: [12] 95 % of control | [13] 114 % of control | [14] 100 % of control

C=C(Cl)CSC(=S)N(C)C
inactive: [15] 98 % of control | [16] 98 % of control

N=C(N)c1cccc(OCc2ccccc2)c1
inactive: [1] 90 % of control | [3] 94 % of control | [5] 94 % of control

CC(C)N1CCC(=O)NC1=O
inactive: [2] 94 % of control | [8] 94 % of control | [4] 94 % of control | [10] 92 % of control | [6] 91 % of control | [11] 103 % of control

COc1cc2c(cc1OC)C(C)=NCC2
inactive: dose: 12.0 mg/kg/injection, schedule: Q01DX009 (ip), vehicle: saline 103 % of control | dose: 25.0 mg/kg/injection, schedule: Q01DX009 (ip), vehicle: saline 94 % of control | dose: 25.0 mg/kg/injection, schedule: Q04DX003 (ip), vehicle: saline 105 % of control | [17] 114 % of control | [15] 110 % of control | dose: 50.0 mg/kg/injection, schedule: Q04DX003 (ip), vehicle: saline 105 % of control | [18] 104 % of control | [8] 102 % of control

COC(=O)C1(C)CCCC2(C)c3cc(OC)c4c(c3CCC12)C(=O)CCC4 (stereo not drawn)
inactive: dose: 100.0 mg/kg/injection, schedule: Q01DX001 (sc), vehicle: steriod suspending solution 93 % of control | dose: 200.0 mg/kg/injection, schedule: Q01DX001 (sc), vehicle: steriod suspending solution 90 % of control | dose: 400.0 mg/kg/injection, schedule: Q01DX001 (sc), vehicle: steriod suspending solution 98 % of control

O=C(O)CCCCCN1C(=O)CCC1=O
inactive: dose: 75.0 mg/kg/injection, schedule: Q04DX003 (ip), vehicle: saline 95 % of control | dose: 150.0 mg/kg/injection, schedule: Q04DX003 (ip), vehicle: saline 103 % of control | dose: 300.0 mg/kg/injection, schedule: Q04DX003 (ip), vehicle: saline 92 % of control

COc1ccc(C(=O)CC(=O)CC(=O)c2ccccc2)cc1
inactive: [12] 117 % of control | [2] 107 % of control | [13] 102 % of control | [4] 96 % of control | [14] 96 % of control | [6] 105 % of control

COC(=O)/C=C/C(=O)OC
inactive: dose: 25.0 mg/kg/injection, schedule: Q04DX002 (ip), vehicle: Klucel (hydroxypropylcellulose) (HPC) 97 % of control | dose: 50.0 mg/kg/injection, schedule: Q04DX002 (ip), vehicle: Klucel (hydroxypropylcellulose) (HPC) 100 % of control | [19] 103 % of control | [2] 104 % of control | [8] 101 % of control | [4] 101 % of control | [10] 107 % of control | [6] 112 % of control | [11] 103 % of control

Cc1ccc2c(Cl)ccc(Cl)c2n1
inactive: [19] 90 % of control | dose: 100.0 mg/kg/injection, schedule: Q04DX002 (ip), vehicle: carboxymethylcellulose (CMC) 98 % of control and 90 % of control | dose: 100.0 mg/kg/injection, schedule: Q04DX003 (ip), vehicle: carboxymethylcellulose (CMC) 95 % of control | [20] 90 % of control | dose: 200.0 mg/kg/injection, schedule: Q04DX002 (ip), vehicle: carboxymethylcellulose (CMC) 94 % of control and 91 % of control | dose: 200.0 mg/kg/injection, schedule: Q04DX003 (ip), vehicle: carboxymethylcellulose (CMC) 104 % of control | dose: 400.0 mg/kg/injection, schedule: Q04DX002 (ip), vehicle: Klucel (hydroxypropylcellulose) (HPC) 105 % of control | dose: 400.0 mg/kg/injection, schedule: Q04DX002 (ip), vehicle: carboxymethylcellulose (CMC) 92 % of control

CCCCCC(Oc1ccc(Cl)cc1Cl)C(=O)O (stereo not drawn)
inactive: [19] 100 % of control | [20] 97 % of control

NCCN1CCN=C1C1=NCCN1CCN
inactive: [16] 98 % of control | [8] 100 % of control | dose: 200.0 mg/kg/injection, schedule: Q01DX009 (ip), vehicle: saline 93 % of control | [10] 98 % of control | dose: 400.0 mg/kg/injection, schedule: Q01DX009 (ip), vehicle: saline 98 % of control | [11] 96 % of control

c1cc2c3c(c1)ncn3CCC2
inactive: dose: 50.0 mg/kg/injection, schedule: Q01DX009 (ip), vehicle: other 119 % of control | dose: 100.0 mg/kg/injection, schedule: Q01DX009 (ip), vehicle: other 104 % of control | [21] 102 % of control | dose: 200.0 mg/kg/injection, schedule: Q01DX009 (ip), vehicle: other 117 % of control | [22] 100 % of control

CCCC(O)CC(C)O (stereo not drawn)
inactive: [18] 97 % of control | [23] 100 % of control | dose: 400.0 mg/kg/injection, schedule: Q01DX001 (ip), vehicle: saline 95 % of control

CN(C)CC1CCC(CN(C)C)C1=O (stereo not drawn)
inactive: dose: 9.38 mg/kg/injection, schedule: Q01DX001 (ip), vehicle: other 106 % of control | dose: 9.38 mg/kg/injection, schedule: Q01DX001 (ip), vehicle: saline 104 % of control | dose: 18.75 mg/kg/injection, schedule: Q01DX001 (ip), vehicle: other 101 % of control | dose: 18.75 mg/kg/injection, schedule: Q01DX001 (ip), vehicle: saline 103 % of control | dose: 37.5 mg/kg/injection, schedule: Q01DX001 (ip), vehicle: other 115 % of control

CN1CNC(=O)NC1
inactive: [12] 113 % of control | [2] 105 % of control | [13] 105 % of control | [4] 105 % of control | [14] 103 % of control | [6] 111 % of control

CC12CCC(=O)N1C(C(=O)O)CS2 (stereo not drawn)
inactive: dose: 100.0 mg/kg/injection, schedule: Q04DX002 (ip), vehicle: saline 91 % of control | dose: 200.0 mg/kg/injection, schedule: Q04DX002 (ip), vehicle: saline 102 % of control | dose: 400.0 mg/kg/injection, schedule: Q04DX002 (ip), vehicle: saline 98 % of control

CCOCc1nc(N)nc(N)c1-c1cccc(Cl)c1
inactive: [7] 104 % of control | [9] 117 % of control

O=C(Nc1ccc(F)cc1)Nc1ccc(Cl)cc1
inactive: [21] 86 % of control | [22] 86 % of control | [24] 87 % of control

C(=C\c1ccc(-n2nc3ccc4ccccc4c3n2)cc1)/c1ccccc1
inactive: [25] 97 % of control | [7] 102 % of control | [9] 102 % of control

Cc1ccc(-c2ccc(C)cc2)cc1
inactive: [2] 98 % of control | [4] 95 % of control | [6] 98 % of control

CN(C)C1CCc2ccc3ccccc3c2C1=O (stereo not drawn)
inactive: [15] 88 % of control

O=C(CBr)N1CCC2(CC1)SSC1(CCN(C(=O)CBr)CC1)S2
inactive: [25] 96 % of control | [7] 91 % of control | [21] 102 % of control | [22] 105 % of control

CNC(=O)Oc1cccc(NC(=O)N(C(C)C)C(C)C)c1
inactive: [21] 91 % of control | [22] 89 % of control | [24] 88 % of control

Cc1cc(C)c(SSc2c(C)cc(C)cc2C)c(C)c1
inactive: [17] 106 % of control | [18] 104 % of control | [23] 100 % of control
